Experimental data taken from PubChem BioAssay (NCI).
Several values for one entry are separate records, joined by “and”; a condition that tells them apart may be missing. Identical values can stand only once.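 All cell lines were grown in 96-well plates and treated with compound for 48 hours. GI50 marks 50% less growth. TGI is the concentration that stops growth completely.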

Key:
Assay in all cases: NCI-60 cell line screen, 48 h
SW-620 colon = system: SW-620 colon
SNB-75 CNS = system: SNB-75 CNS
UACC-257 melanoma = system: UACC-257 melanoma
SK-MEL-2 melanoma = system: SK-MEL-2 melanoma
MDA-MB-435 = system: MDA-MB-435
NCI-H460 lung = system: NCI-H460 lung
ACHN renal = system: ACHN renal
LXFL 529 NSCLC = system: LXFL 529 NSCLC
DMS 273 small cell lung = system: DMS 273 small cell lung
DMS 114 small cell lung = system: DMS 114 small cell lung
KM20L2 colon = system: KM20L2 colon
M19-MEL melanoma = system: M19-MEL melanoma
HOP-18 NSCLC = system: HOP-18 NSCLC
XF 498 CNS = system: XF 498 CNS

## CC(=O)OC/C=C\Cn1nc(Br)c(=O)[nH]c1=O
SW-620 colon
  TGI: 32.3 µM
SNB-75 CNS
  TGI: 29.6 µM
UACC-257 melanoma
  TGI: 31.8 µM
SK-MEL-2 melanoma
  TGI: 30.6 µM
MDA-MB-435
  TGI: 29.4 µM
NCI-H460 lung
  TGI: 26.7 µM
ACHN renal
  TGI: 23.4 µM

## CC1(C)Cc2c(C#N)c(N)c3c(c2CO1)C(=O)OC3=O
SW-620 colon
  TGI: > 100 µM
LXFL 529 NSCLC
  TGI: > 100 µM
DMS 273 small cell lung
  TGI: > 100 µM
DMS 114 small cell lung
  TGI: > 100 µM
SK-MEL-2 melanoma
  TGI: > 100 µM
KM20L2 colon
  TGI: > 100 µM
M19-MEL melanoma
  TGI: > 100 µM
NCI-H460 lung
  TGI: > 100 µM
HOP-18 NSCLC
  TGI: > 100 µM
ACHN renal
  TGI: > 100 µM
XF 498 CNS
  TGI: > 100 µM

## Cc1[nH]nc(N)c1C(N)=O
SW-620 colon
  TGI: > 100 µM
LXFL 529 NSCLC
  TGI: > 100 µM
DMS 273 small cell lung
  TGI: > 100 µM
SNB-75 CNS
  TGI: > 100 µM
DMS 114 small cell lung
  TGI: > 100 µM
UACC-257 melanoma
  TGI: > 100 µM
SK-MEL-2 melanoma
  TGI: > 100 µM
KM20L2 colon
  TGI: > 100 µM
ACHN renal
  TGI: > 100 µM
XF 498 CNS
  TGI: > 100 µM

## COC(=O)c1c(O)ccc2c1c1c(n2Cc2ccc(Cl)cc2Cl)C(=O)c2ccccc2C1=O
SW-620 colon
  TGI: 32.4 µM
SNB-75 CNS
  TGI: 32.3 µM
UACC-257 melanoma
  TGI: 30.1 µM
SK-MEL-2 melanoma
  TGI: 28.8 µM
MDA-MB-435
  TGI: 20.6 µM
NCI-H460 lung
  TGI: 13 µM
ACHN renal
  TGI: 20.4 µM

## COc1cccc(/C=N/[N-]C(N)=O)c1[O-].[Ni+2].[OH3+].c1ccc(-c2ccccn2)nc1
SW-620 colon
  TGI: > 100 µM
SNB-75 CNS
  TGI: > 100 µM
UACC-257 melanoma
  TGI: > 100 µM
SK-MEL-2 melanoma
  TGI: > 100 µM
KM20L2 colon
  TGI: > 100 µM
NCI-H460 lung
  TGI: > 100 µM
ACHN renal
  TGI: > 100 µM

## COc1cc(S(=O)(=O)Nc2ccc(-c3csc(N)n3)cc2)ccc1Cl
SW-620 colon
  TGI: 58.5 µM
SNB-75 CNS
  TGI: 39.2 µM
SK-MEL-2 melanoma
  TGI: 35 µM
MDA-MB-435
  TGI: 46.9 µM
ACHN renal
  TGI: 32.8 µM

## O=C(N/N=C/c1cc(Cl)cc(Cl)c1[O-])c1ccccc1O.O=C(N/N=C/c1cc(Cl)cc(Cl)c1[O-])c1ccccc1O.[Zn+2]
SW-620 colon
  TGI: 20.9 µM
SNB-75 CNS
  TGI: 16.4 µM
UACC-257 melanoma
  TGI: 11.8 µM
SK-MEL-2 melanoma
  GI50: 0.591 µM
  TGI: 11.5 µM
KM20L2 colon
  GI50: 2.05 µM
  TGI: 5.17 µM
ACHN renal
  TGI: 12.9 µM

## OC1CCOc2ccccc21 (centres undefined)
SW-620 colon
  TGI: > 100 µM
LXFL 529 NSCLC
  TGI: > 100 µM
DMS 273 small cell lung
  TGI: > 100 µM
DMS 114 small cell lung
  TGI: > 100 µM
SK-MEL-2 melanoma
  TGI: > 100 µM
KM20L2 colon
  TGI: > 100 µM
M19-MEL melanoma
  TGI: > 100 µM
NCI-H460 lung
  TGI: > 100 µM
HOP-18 NSCLC
  TGI: > 100 µM
ACHN renal
  TGI: > 100 µM
XF 498 CNS
  TGI: > 100 µM

## CC(=O)NC(c1nc2cc(C)c(C)cc2[nH]1)c1nc2cc(C)c(C)cc2[nH]1
SW-620 colon
  TGI: > 100 µM
SNB-75 CNS
  TGI: 50.7 µM
UACC-257 melanoma
  TGI: 71.1 µM
SK-MEL-2 melanoma
  TGI: > 100 µM
MDA-MB-435
  TGI: 42.3 µM
NCI-H460 lung
  TGI: 32.8 µM
ACHN renal
  TGI: > 100 µM

## S=C1CC(c2ccccc2)Sc2ccccc2N1 (centres undefined)
SNB-75 CNS
  TGI: > 100 µM
UACC-257 melanoma
  TGI: > 100 µM
MDA-MB-435
  TGI: > 100 µM
NCI-H460 lung
  TGI: > 100 µM
ACHN renal
  TGI: > 100 µM

## NC(=O)CCC(N=C(N)c1csc(C2OC(CO)C(O)C2O)n1)C(=O)O (centres undefined)
SW-620 colon
  TGI: > 100 µM
LXFL 529 NSCLC
  TGI: > 100 µM
DMS 273 small cell lung
  TGI: > 100 µM
SNB-75 CNS
  TGI: > 100 µM
DMS 114 small cell lung
  TGI: > 100 µM
UACC-257 melanoma
  TGI: > 100 µM
SK-MEL-2 melanoma
  TGI: > 100 µM
KM20L2 colon
  TGI: > 100 µM
ACHN renal
  TGI: > 100 µM
XF 498 CNS
  TGI: > 100 µM

## CCOC(=O)c1c(Cl)nc2ccccc2c1N=[N+]=[N-]
SW-620 colon
  TGI: 35.1 µM
UACC-257 melanoma
  TGI: 53.4 µM
SK-MEL-2 melanoma
  TGI: 71.5 µM
MDA-MB-435
  TGI: 47.1 µM
NCI-H460 lung
  TGI: 63.6 µM
ACHN renal
  TGI: > 100 µM

## COc1ccc(/C(O)=C/c2nc3cccnc3nc2/C=C(\O)c2ccc(OC)cc2)cc1
UACC-257 melanoma
  TGI: > 100 µM
SK-MEL-2 melanoma
  TGI: 91.7 µM
MDA-MB-435
  TGI: 76.4 µM
NCI-H460 lung
  TGI: 32.6 µM
ACHN renal
  TGI: 53.5 µM

## CC(=O)NC(CCC(=O)C=[N+]=N)C(=O)O (centres undefined)
SW-620 colon
  TGI: > 100 µM
SNB-75 CNS
  TGI: > 100 µM
UACC-257 melanoma
  TGI: > 100 µM
SK-MEL-2 melanoma
  TGI: > 100 µM
MDA-MB-435
  TGI: > 100 µM
NCI-H460 lung
  TGI: > 100 µM
ACHN renal
  TGI: > 100 µM

## Cc1oc2c(Cl)cc(O)c(Cl)c2c2cccc1-2
SW-620 colon
  TGI: > 100 µM
SNB-75 CNS
  TGI: 20.7 µM
UACC-257 melanoma
  TGI: > 100 µM
SK-MEL-2 melanoma
  TGI: > 100 µM
MDA-MB-435
  TGI: 70 µM
NCI-H460 lung
  TGI: > 100 µM
ACHN renal
  TGI: > 100 µM

## [O-][n+]1ccccc1S
SW-620 colon
  TGI: 23.1 µM
SNB-75 CNS
  TGI: > 100 µM
UACC-257 melanoma
  TGI: 64.4 µM
SK-MEL-2 melanoma
  TGI: 9.13 µM
MDA-MB-435
  GI50: 3.17 µM
  TGI: > 100 µM
NCI-H460 lung
  TGI: 5.21 µM
ACHN renal
  TGI: > 100 µM

## O=S(=O)(O)c1ccc(N=Nc2c(O)ccc3cc(Br)ccc23)cc1
SW-620 colon
  TGI: > 100 µM
SNB-75 CNS
  TGI: > 100 µM
UACC-257 melanoma
  TGI: > 100 µM
SK-MEL-2 melanoma
  TGI: > 100 µM
MDA-MB-435
  TGI: > 100 µM
ACHN renal
  TGI: > 100 µM

## CNC(=O)SCC(N)C(=O)O (centres undefined)
SW-620 colon
  TGI: > 100 µM
DMS 273 small cell lung
  TGI: > 100 µM
SNB-75 CNS
  TGI: > 100 µM
DMS 114 small cell lung
  TGI: > 100 µM
UACC-257 melanoma
  TGI: > 100 µM
SK-MEL-2 melanoma
  TGI: > 100 µM
KM20L2 colon
  TGI: > 100 µM
NCI-H460 lung
  TGI: > 100 µM
HOP-18 NSCLC
  TGI: > 100 µM
XF 498 CNS
  TGI: > 100 µM

## Cc1ccc(-c2cc(C(F)(F)F)nn2-c2ccc(S(N)(=O)=O)cc2)cc1
SW-620 colon
  TGI: > 56.3 µM
SNB-75 CNS
  TGI: > 53.8 µM
UACC-257 melanoma
  TGI: > 58.3 µM
SK-MEL-2 melanoma
  TGI: 43.5 µM
MDA-MB-435
  TGI: > 56 µM
NCI-H460 lung
  TGI: 37.4 µM
ACHN renal
  TGI: > 56 µM

## CC1CCC2(C(=O)O)CCC3(C)C(=CCC4C5(C)CCC(O)C(C)(C)C5CCC43C)C2C1C (centres undefined)
SW-620 colon
  GI50: 5.07 µM and 46.9 µM
  TGI: 16.9 µM and > 100 µM
DMS 273 small cell lung
  TGI: 22 µM
SNB-75 CNS
  GI50: 1.52 µM and 13.3 µM
  TGI: 16.5 µM and 30.4 µM
DMS 114 small cell lung
  TGI: 21.5 µM
UACC-257 melanoma
  GI50: 4.8 µM and 12.1 µM
  TGI: 13.7 µM and 32.6 µM
SK-MEL-2 melanoma
  TGI: 19 µM and 30.2 µM
KM20L2 colon
  TGI: 17.5 µM
MDA-MB-435
  TGI: 75.1 µM
M19-MEL melanoma
  TGI: 18.9 µM
NCI-H460 lung
  TGI: 24.8 µM
HOP-18 NSCLC
  TGI: 34.4 µM
XF 498 CNS
  TGI: 11.7 µM

## CCCC(=O)NC1CCc2cc(OC)c(OC)c(OC)c2-c2ccc(OC)c(=O)cc21 (centres undefined)
SW-620 colon
  TGI: > 100 µM
SNB-75 CNS
  TGI: > 100 µM
SK-MEL-2 melanoma
  TGI: > 100 µM
NCI-H460 lung
  TGI: > 100 µM
ACHN renal
  TGI: > 100 µM

## CC1CC[C@@]2(OC1)OC1CC3C4CCC5C[C@@H](OC6OC(CO)C(OC7OC(CO)C(O)C(OC8OC(CO)C(O)C(OC9OC(CO)C(O)C(O)C9O)C8O)C7OC7OC(CO)C(O)C(O)C7O)C(O)C6O)[C@H](O)C[C@]5(C)C4CC[C@]3(C)C1[C@@H]2C (some centres undefined)
SW-620 colon
  TGI: > 80.5 µM
SNB-75 CNS
  TGI: > 80.5 µM
UACC-257 melanoma
  TGI: > 80.5 µM
MDA-MB-435
  TGI: > 80.5 µM
NCI-H460 lung
  TGI: > 80.5 µM
ACHN renal
  TGI: > 80.5 µM

## CCC(=O)c1ccc2[nH]c3c(C)c4c(=O)cc(C)[nH]c4c(C)c3c2c1
SW-620 colon
  TGI: > 100 µM
SNB-75 CNS
  TGI: > 100 µM
UACC-257 melanoma
  TGI: > 100 µM
SK-MEL-2 melanoma
  TGI: > 100 µM
MDA-MB-435
  TGI: > 100 µM
NCI-H460 lung
  TGI: > 100 µM
ACHN renal
  TGI: > 100 µM

## CC(=O)O[C@H]1/C(=C/c2ccncc2)C[C@H]2[C@@H]3CC=C4C[C@@H](N5CCCC5)CC[C@]4(C)[C@H]3CC[C@]12C
SW-620 colon
  TGI: 31.9 µM
SNB-75 CNS
  TGI: 28.3 µM
UACC-257 melanoma
  TGI: 6.42 µM
SK-MEL-2 melanoma
  TGI: 32.1 µM
MDA-MB-435
  TGI: 25.8 µM
NCI-H460 lung
  TGI: 24.8 µM
ACHN renal
  TGI: 27.7 µM
